Data on 24 compounds can be found in ChEMBL document CHEMBL4613210, “Tacrines for Alzheimer's disease therapy. III. The PyridoTacrines” (Eur J Med Chem, 2019).

Test [1] has as its target Voltage-gated calcium channel.
Description: Inhibition of VGCC (unknown origin)
Test [2] concerns the target Acetylcholinesterase (Electrophorus electricus, UniProt O42275).
Description: Inhibition of electric eel AChE
The target in test [3] is T1, Cholinesterase (Homo sapiens, UniProt P06276).
Description: Inhibition of human serum BuChE using butyrylthiocholine iodide as substrate by Ellman's methods
The target in test [4] is T2, Acetylcholinesterase (Bos taurus, UniProt P23795).
T2 sequence (P23795 whole entry): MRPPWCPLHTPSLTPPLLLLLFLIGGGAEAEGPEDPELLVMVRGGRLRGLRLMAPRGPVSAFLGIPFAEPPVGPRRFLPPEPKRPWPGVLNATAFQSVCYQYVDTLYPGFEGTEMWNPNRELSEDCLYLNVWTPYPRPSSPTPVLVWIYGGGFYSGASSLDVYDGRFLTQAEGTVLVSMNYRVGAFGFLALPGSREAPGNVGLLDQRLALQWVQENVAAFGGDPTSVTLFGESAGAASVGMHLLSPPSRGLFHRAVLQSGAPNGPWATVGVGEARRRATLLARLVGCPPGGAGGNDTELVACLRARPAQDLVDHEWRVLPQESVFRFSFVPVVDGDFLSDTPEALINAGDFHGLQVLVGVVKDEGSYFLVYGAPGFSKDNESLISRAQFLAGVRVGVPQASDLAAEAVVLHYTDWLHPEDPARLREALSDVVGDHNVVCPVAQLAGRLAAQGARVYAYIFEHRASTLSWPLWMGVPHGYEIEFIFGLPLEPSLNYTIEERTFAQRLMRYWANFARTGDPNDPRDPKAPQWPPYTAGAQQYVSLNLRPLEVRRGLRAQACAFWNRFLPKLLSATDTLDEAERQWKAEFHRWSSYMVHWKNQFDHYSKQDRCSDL
Description: Inhibition of bovine erythrocytes AChE using acetylthiocholine iodide as substrate by Ellman's methods. On the technique in general: In Ellman's method for cholinesterases, released thiocholine reacts with DTNB.

Test [5] concerns the target T1, Cholinesterase. The source holds these as a separate data set.
Description: Inhibition of BuChE (unknown origin)
Test [6] deals with Acetylcholinesterase (Homo sapiens, UniProt P22303). Briefly: Inhibition of human AChE.
In test [7] the target is T1, Cholinesterase. Briefly: Inhibition of human BuChE.

Each structure is given as a SMILES string.

Chain of Acetylcholinesterase (Electrophorus electricus, UniProt O42275) (O42275 whole entry): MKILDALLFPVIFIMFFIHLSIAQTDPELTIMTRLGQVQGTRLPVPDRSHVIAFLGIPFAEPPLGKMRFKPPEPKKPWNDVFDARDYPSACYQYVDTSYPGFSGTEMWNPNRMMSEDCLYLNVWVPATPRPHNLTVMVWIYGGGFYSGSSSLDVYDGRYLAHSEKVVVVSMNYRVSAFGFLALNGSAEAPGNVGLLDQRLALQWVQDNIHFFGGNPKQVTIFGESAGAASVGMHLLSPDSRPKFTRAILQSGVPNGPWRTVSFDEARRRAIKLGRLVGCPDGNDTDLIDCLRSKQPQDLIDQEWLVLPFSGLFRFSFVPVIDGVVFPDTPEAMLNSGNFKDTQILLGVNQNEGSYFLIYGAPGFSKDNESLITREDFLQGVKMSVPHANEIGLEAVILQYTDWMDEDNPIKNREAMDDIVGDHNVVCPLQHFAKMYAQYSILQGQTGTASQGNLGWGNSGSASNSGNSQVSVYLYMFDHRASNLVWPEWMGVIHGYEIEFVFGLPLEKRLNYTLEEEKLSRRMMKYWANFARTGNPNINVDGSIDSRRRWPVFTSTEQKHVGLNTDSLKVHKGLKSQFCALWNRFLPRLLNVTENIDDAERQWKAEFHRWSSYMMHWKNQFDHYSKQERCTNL
T1 sequence (P06276 whole entry): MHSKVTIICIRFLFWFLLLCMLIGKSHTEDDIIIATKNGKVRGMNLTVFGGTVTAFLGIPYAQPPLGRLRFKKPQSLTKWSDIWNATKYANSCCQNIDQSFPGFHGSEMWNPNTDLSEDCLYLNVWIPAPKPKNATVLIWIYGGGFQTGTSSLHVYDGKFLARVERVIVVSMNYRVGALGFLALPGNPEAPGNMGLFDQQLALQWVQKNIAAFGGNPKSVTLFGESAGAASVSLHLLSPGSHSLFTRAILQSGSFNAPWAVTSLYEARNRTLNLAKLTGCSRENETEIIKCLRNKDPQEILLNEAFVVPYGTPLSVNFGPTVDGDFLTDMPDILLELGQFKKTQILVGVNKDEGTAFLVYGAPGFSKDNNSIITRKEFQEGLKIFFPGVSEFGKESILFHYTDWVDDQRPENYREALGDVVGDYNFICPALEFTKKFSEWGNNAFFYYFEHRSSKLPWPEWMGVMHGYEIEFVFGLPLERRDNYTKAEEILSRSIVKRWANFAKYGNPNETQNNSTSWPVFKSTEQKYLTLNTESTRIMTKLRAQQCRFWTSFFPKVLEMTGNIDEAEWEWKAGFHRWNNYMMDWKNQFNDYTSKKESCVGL
Chain of Acetylcholinesterase (Homo sapiens, UniProt P22303) (P22303 whole entry): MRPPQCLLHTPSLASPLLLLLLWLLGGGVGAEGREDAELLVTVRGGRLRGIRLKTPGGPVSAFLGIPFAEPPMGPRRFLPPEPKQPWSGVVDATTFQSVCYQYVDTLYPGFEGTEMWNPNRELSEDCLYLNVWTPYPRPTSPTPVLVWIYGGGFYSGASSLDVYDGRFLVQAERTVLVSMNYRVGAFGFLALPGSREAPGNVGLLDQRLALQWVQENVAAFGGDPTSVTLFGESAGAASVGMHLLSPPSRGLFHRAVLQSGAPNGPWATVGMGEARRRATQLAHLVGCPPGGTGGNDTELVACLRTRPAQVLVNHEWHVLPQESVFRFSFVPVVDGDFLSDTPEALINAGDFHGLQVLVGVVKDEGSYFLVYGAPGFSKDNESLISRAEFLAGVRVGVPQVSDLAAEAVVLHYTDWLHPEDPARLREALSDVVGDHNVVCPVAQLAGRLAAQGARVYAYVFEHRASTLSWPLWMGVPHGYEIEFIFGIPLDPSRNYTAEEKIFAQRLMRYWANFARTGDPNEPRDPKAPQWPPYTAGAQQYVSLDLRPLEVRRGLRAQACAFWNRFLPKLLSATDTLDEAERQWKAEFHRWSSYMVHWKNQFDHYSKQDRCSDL

As to `CCOC(=O)c1c(C)nc2nc3c(c(N)c2c1-c1ccc(C)cc1)CCCCC3`, the 50% inhibitory concentration (IC50) (in general, the point on the concentration scale where inhibition reaches its midpoint) in test [1] stood at 24 µM; in test [2], 13 µM.
Turning to `CCOC(=O)c1c(C)nc2nc3c(c(N)c2c1-c1ccccc1OC)CCCCC3`, the figures for the half-inhibitory concentration (IC50) in test [1] and in test [2] were 17 µM and 22 µM, respectively.
In the same order, the values of `CCOC(=O)c1c(C)nc2nc3c(c(N)c2c1-c1ccc(Cl)cc1)CCCCC3` are 27 µM and 19 µM.
The matching figures for `CCOC(=O)c1c(C)nc2nc3c(c(N)c2c1-c1ccccc1)CCCCCC3`: 10 µM and 17 µM.
In the same order, the values of `CCOC(=O)c1c(C)nc2nc3c(c(N)c2c1-c1ccc(OC)cc1)CCCCCC3` are 20 µM and 17 µM.
Consider `CCOC(=O)c1c(C)nc2nc3c(c(N)c2c1-c1ccc(OC)cc1)CCCCC3`, for which the IC50 in test [3] is 80.6 µM; in test [4] (read-out: IC50), 1.3 µM.
With `CCOC(=O)c1c(C)nc2nc3c(c(N)c2c1-c1ccc(OC)c(OC)c1)CCCC3`, the IC50 in test [1] was 26 µM; in test [2] it was 1.3 µM.
Consider `CCOC(=O)c1c(C)nc2nc3c(c(N)c2c1-c1ccc(F)cc1)CCCC3`, for which the concentration for half-maximal inhibition (IC50) in test [1] is 38 µM; in test [5], 12 µM; in test [2], 0.7 µM.
As for `CCOC(=O)c1c(C)nc2nc3c(c(N)c2c1-c1ccc(F)cc1)CCCCC3`, the IC50 came out at 17 µM in test [1] and 5.4 µM in test [2].
In the case of `CCOC(=O)c1c(C)nc2nc3c(c(N)c2c1-c1ccc(Cl)cc1)CCCC3`, the IC50 in test [1] is 34 µM; in test [5], 52 µM; in test [2], 1.3 µM.
Take `CCOC(=O)c1c(C)nc2nc3c(c(N)c2c1-c1ccc(OC)c(OC)c1)CCCCC3`: the IC50 in test [1] came to 9 µM; in test [2], 6.4 µM.
For the compound `Cc1nc2nc3c(c(N)c2c(-c2ccccc2)c1C(=O)OC(C)C)CCCC3`, the IC50 was found to be 10 µM in test [1], 12 µM in test [5] and 1.2 µM in test [2].
For `CCOC(=O)c1c(C)nc2nc3c(c(N)c2c1-c1ccccc1)CCCC3`, the half-inhibitory concentration (IC50) in test [1] is 20 µM; in test [3], 5 µM; in test [5], 5 µM; in test [4] it was 0.82 µM.
`CCOC(=O)c1c(C)nc2nc3c(c(N)c2c1-c1ccccc1)CCCCC3` registered an IC50 in test [4] of 21 µM.
`CCOC(=O)c1c(C)nc2nc3c(c(N)c2c1-c1ccc(OC)cc1)CCCC3` had an IC50 in test [4] of 9 µM.
`CCOC(=O)c1c(C)nc2nc3c(c(N)c2c1-c1ccccc1)CCC3` came in with a half-maximal inhibitory concentration (IC50) in test [4] of 11.9 µM.
As for `CCOC(=O)c1c(C)nc2nc3c(c(N)c2c1-c1ccc(OC)cc1)CCC3`, the IC50 in test [4] (read-out: IC50) turned out to be 14 µM.
For the compound `CCOC(=O)c1c(C)nc2nc3c(c(N)c2c1-c1cccc(OC)c1)CCCC3`, the IC50 came to 15 µM in test [1], 31 µM in test [5] and 1.2 µM in test [2].
As for `CCOC(=O)c1c(C)nc2nc3c(c(N)c2c1-c1cccc([N+](=O)[O-])c1)CCCC3`, the IC50 in test [1] was 18 µM; in test [5], 21 µM; in test [2], 0.9 µM.
`CCOC(=O)c1c(C)nc2nc3c(c(N)c2c1-c1ccc([N+](=O)[O-])cc1)CCCCC3`: the half-maximal inhibitory concentration (IC50) was 13 µM in test [1] and 14 µM in test [2].
With `CCOC(=O)c1c(C)nc2nc3c(c(N)c2c1-c1cccc(OC)c1)CCCCC3`, in test [1], the IC50 was found to be 9 µM.
`COc1ccc(C2c3c(nc4c(c3N)CCCC4)Oc3ccc4ccccc4c32)cc1OC` (racemic) came in with a half-maximal inhibitory concentration (IC50) in test [6] of 0.083 µM.
Consider `COc1cc(C2c3ccc(O)cc3Oc3nc4c(c(N)c32)CCCC4)cc(OC)c1OC` (racemic), for which the IC50 in test [4] (read-out: IC50) worked out at 0.041 µM.
In the case of `CCOC(=O)C1=C(C)Oc2nc3c(c(N)c2C1c1ccc(OC)cc1)CCCC3` (racemic), the IC50 came to 6.2 µM in test [7], 6.2 µM in test [3] and 0.87 µM in test [4] (read-out: IC50).
